Laboratory results reported in patent US20240391862A1, “(1,4,5-TRISUBSTITUTED-1H-PYRAZOL-3-YL)OXY-2-ALKOXY ALKYL ACIDS AND THEIR DERIVATIVES, THEIR SALTS AND THEIR USE AS HERBICIDAL AGENTS” (Bayer AKtiengesellschaft, priority 2021, published 2024).

How the values were obtained:
ALOMY [1] = test: Pre-emergence herbicidal effect, greenhouse pot test; assay type: in vivo, Alopecurus myosuroides; conditions: scored visually after about 3 weeks vs untreated controls
Description: (§1) Seeds of monocotyledonous and dicotyledonous weed plants and crop plants are placed in plastic or organic planting pots and covered with soil. The compounds of the invention, formulated in the form of wettable powders (WP) or as emulsion concentrates (EC), are then applied to the surface of the covering soil as aqueous suspension or emulsion with addition of 0.5% additive at a water application rate equivalent to 600 l/ha. After the treatment, the pots are placed in a greenhouse and kept under good growth conditions for the trial plants. After about 3 weeks, the effect of the preparations is scored visually in comparison with untreated controls as percentages. For example, 100% activity=the plants have died, 0% activity=like control plants.
(§2) Tables 1a to 19c below show the effects/crop compatibilities of selected compounds of the general formula (I) on various harmful plants at an application rate corresponding to 20 to 320 g/ha, which were obtained by the trial procedure specified above.
(§3) • ALOMY: Alopecurus myosuroides SETVI: Setaria viridis • AVEFA: Avena fatua POLCO: Fallopia convolvulus • AMARE: Amaranthus retroflexus ECHCG: Echinochloa crus-galli • LOLRJ: Lolium rigidum STEME: Stellaria media • VERPE: Veronica persica MATIN: Tripleurospermum inodorum • DIGSA: Digitaria sanguinalis ABUTH: Abutylon threophrasti • TRZAS: Triticum aestivum VIOTR: Viola tricolor • BRSNW: Brassica napus ZEAMX: Zea mays • PHBPU: Ipomoea purpurea GLXMA: Glycine max • ORYSA: Oryza sativa HORMU: Hordeum murinum

VERPE [2] = test: Post-emergence herbicidal effect, greenhouse pot test; assay type: in vivo, Veronica persica; conditions: Veronica persica, 504 h, read-out: Post-emergence effect against VERPE in %
Procedure, shortened: (§4)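 Weeds sown in sandy loam, greenhouse-grown 2–3 weeks, then sprayed at one-leaf stage with WP or EC formulations in water plus 0.5% additive at 600 l/ha. Rates 20 to 320 g/ha. Visual rating after about 3 weeks versus untreated controls (100% = plants dead, 0% = like control).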

MATIN [3] = test: as above; assay type: in vivo, Tripleurospermum inodorum; conditions: Tripleurospermum inodorum, 504 h, read-out: Post-emergence effect against MATIN in %
Procedure, shortened: as §4

SETVI [4] = test: Pre-emergence herbicidal effect, greenhouse pot test; assay type: in vivo, Setaria viridis; conditions: scored visually after about 3 weeks vs untreated controls; for pest or weed control at 320 g/ha: Setaria viridis, 504 h, read-out: Pre-emergence effect at 320 g/ha against SETVI in %
Procedure, shortened: (§5)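 Seeds sown in pots and covered with soil; WP- or EC-formulated compounds applied to the soil surface as aqueous suspension/emulsion with 0.5% additive at 600 l/ha water, 20 to 320 g/ha. Greenhouse growth; visual % effect vs untreated controls after about 3 weeks (100% = plants died, 0% = like control).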

VIOTR = test: Post-emergence herbicidal effect, greenhouse pot test; assay type: in vivo, Viola tricolor; conditions: Viola tricolor, 504 h, read-out: Post-emergence effect against VIOTR in %
Procedure, shortened: as §4

PHBPU = test: as above; assay type: in vivo, Ipomoea purpurea; conditions: Ipomoea purpurea, 504 h, read-out: Post-emergence effect against PHBPU in %
Procedure, shortened: as §4

ECHCG [5] = test: as above; assay type: in vivo, Echinochloa crus-galli; conditions: Echinochloa crus-galli, 504 h, read-out: Post-emergence effect against ECHCG in %
Procedure, shortened: as §4

SETVI [6] = test: as above; assay type: in vivo, Setaria viridis; conditions: Setaria viridis, 504 h, read-out: Post-emergence effect against SETVI in %
Procedure, shortened: as §4

MATIN [7] = test: Pre-emergence herbicidal effect, greenhouse pot test; assay type: in vivo, Tripleurospermum inodorum; conditions: scored visually after about 3 weeks vs untreated controls; for pest or weed control at 320 g/ha: Tripleurospermum inodorum, 504 h, read-out: Pre-emergence effect at 320 g/ha against MATIN in %
Description: as §1, §2, §3

ECHCG [8] = test: as above; assay type: in vivo, Echinochloa crus-galli; conditions: scored visually after about 3 weeks vs untreated controls; for pest or weed control at 320 g/ha: Echinochloa crus-galli, 504 h, read-out: Pre-emergence effect at 320 g/ha against ECHCG in %
Description: as §1, §2, §3

AMARE [9] = test: as above; assay type: in vivo, Amaranthus retroflexus; conditions: scored visually after about 3 weeks vs untreated controls; for pest or weed control at 320 g/ha: Amaranthus retroflexus, 504 h, read-out: Pre-emergence effect at 320 g/ha against AMARE in %
Procedure, shortened: as §5

AMARE [10] = test: Post-emergence herbicidal effect, greenhouse pot test; assay type: in vivo, Amaranthus retroflexus; conditions: Amaranthus retroflexus, 504 h, visual rating about 3 weeks after treatment, read-out: Post-emergence effect against AMARE
Procedure, shortened: as §4

ZEAMX = test: Pre-emergence herbicidal effect and crop plant compatibility, greenhouse pot test; assay type: in vivo, Zea mays; conditions: 80 g/ha, scored visually after about 3 weeks vs untreated controls
Procedure, shortened: as §5

VERPE [11] = test: Pre-emergence herbicidal effect, greenhouse pot test; assay type: in vivo, Veronica persica; conditions: scored visually after about 3 weeks vs untreated controls
Description: as §1, §2, §3

LOLRI [12] = test: as above; assay type: in vivo, Lolium rigidum; conditions: scored visually after about 3 weeks vs untreated controls
Description: as §1, §2, §3

ALOMY [13] = test: Post-emergence herbicidal effect, greenhouse pot test; assay type: in vivo, Alopecurus myosuroides; conditions: Alopecurus myosuroides, 504 h, visual rating about 3 weeks after treatment, read-out: Post-emergence effect against ALOMY
Procedure, shortened: as §4

POLCO = test: Pre-emergence herbicidal effect, greenhouse pot test; assay type: in vivo, Fallopia convolvulus; conditions: scored visually after about 3 weeks vs untreated controls; for pest or weed control at 320 g/ha: Fallopia convolvulus, 504 h, read-out: Pre-emergence effect at 320 g/ha against POLCO in %
Description: as §1, §2, §3

AVEFA [14] = test: Post-emergence herbicidal effect, greenhouse pot test; assay type: in vivo, Avena fatua; conditions: Avena fatua, 504 h, visual rating about 3 weeks after treatment, read-out: Post-emergence effect against AVEFA
Procedure, shortened: as §4

LOLRI [15] = test: as above; assay type: in vivo, Lolium rigidum; conditions: Lolium rigidum, 504 h, read-out: Post-emergence effect against LOLRI in %
Procedure, shortened: as §4

AVEFA [16] = test: Pre-emergence herbicidal effect, greenhouse pot test; assay type: in vivo, Avena fatua; conditions: 320 g/ha, scored visually after about 3 weeks vs untreated controls
Description: as §1, §2, §3

| SMILES | Pre-emergence effect at 320 g/ha against ALOMY in % (ALOMY [1]) [%] | pest or weed control at 320 g/ha (VERPE [2]) [%] | pest or weed control at 320 g/ha (MATIN [3]) [%] | pest or weed control at 320 g/ha (SETVI [4]) [%] | pest or weed control at 320 g/ha (VIOTR) [%] | pest or weed control at 320 g/ha (PHBPU) [%] | pest or weed control at 320 g/ha (ECHCG [5]) [%] | pest or weed control at 80 g/ha (SETVI [6]) [%] | pest or weed control at 320 g/ha (SETVI [6]) [%] | pest or weed control at 320 g/ha (MATIN [7]) [%] | pest or weed control at 320 g/ha (ECHCG [8]) [%] | pest or weed control at 320 g/ha (AMARE [9]) [%] | pest or weed control at 320 g/ha (AMARE [10]) [%] | Pre-emergence effect at 80 g/ha against ZEAMX in % (ZEAMX) [%] | Pre-emergence effect at 320 g/ha against LOLRI in % (LOLRI [12]) [%] | pest or weed control at 80 g/ha (ALOMY [13]) [%] | pest or weed control at 320 g/ha (ALOMY [13]) [%] | pest or weed control at 320 g/ha (POLCO) [%] | pest or weed control at 320 g/ha (AVEFA [14]) [%] | pest or weed control at 320 g/ha (LOLRI [15]) [%] | also measured |
| --- | --- | --- | --- | --- | --- | --- | --- | --- | --- | --- | --- | --- | --- | --- | --- | --- | --- | --- | --- | --- | --- |
| COC(=O)C(OC)Oc1nn(-c2ccccc2F)c(-c2ccc(F)nc2)c1Br (racemic) [Example I-04, Methyl (2RS)-{[4-bromo-1-(2-fluorophenyl)-5-(6-fluoropyridin-3-yl)-1H-pyrazol-3-yl]oxy}(methoxy)acetate] | 90 | 90 | 80 | 100 | 80 | 80 | 80 | 80 | 80 | 90 | 100 | 100 | 90 | 0 | 100 | 90 | 90 | 90 | 90 | 80 | Pre-emergence effect at 80 g/ha against ALOMY in % (ALOMY [1]; 80 g/ha): 80%; pest or weed control at 80 g/ha (VERPE [2]): 90%; pest or weed control at 80 g/ha (MATIN [3]): 80%; Pre-emergence effect at 80 g/ha against SETVI in % (SETVI [4]; 80 g/ha): 80%; pest or weed control at 80 g/ha (VIOTR): 80%; pest or weed control at 80 g/ha (PHBPU): 80%; pest or weed control at 80 g/ha (ECHCG [5]): 80%; Pre-emergence effect at 80 g/ha against ECHCG in % (ECHCG [8]; 80 g/ha): 80%; Pre-emergence effect at 80 g/ha against AMARE in % (AMARE [9]): 80%; Pre-emergence effect at 320 g/ha against VERPE in % (VERPE [11]): 90%; Pre-emergence effect at 80 g/ha against POLCO in % (POLCO): 80%; pest or weed control at 80 g/ha (AVEFA [14]): 80%; pest or weed control at 80 g/ha (LOLRI [15]): 80%; Pre-emergence effect at 320 g/ha against AVEFA in % (AVEFA [16]): 80% |
| COC(=O)C(OC)Oc1nn(-c2ncccc2F)c(-c2ccc(F)nc2)c1Br (stereo not shown) [Example I-05] | 90 | 80 | 80 | 100 | 80 | 90 | 80 | 80 | 80 | 90 | 90 | 90 | 80 | 20 | 100 | 90 | 90 | 90 | 80 | 90 | pest or weed control at 80 g/ha (AVEFA [14]): 80%; pest or weed control at 80 g/ha (LOLRI [15]): 80%; Pre-emergence effect at 320 g/ha against AVEFA in % (AVEFA [16]): 90% |
| CCOC(=O)C(OCC)Oc1nn(-c2ccccc2F)c(-c2ccc(F)nc2)c1Br (racemic) [Example I-01, Ethyl (2RS)-{[4-bromo-1-(2-fluorophenyl)-5-(6-fluoropyridin-3-yl)-1H-pyrazol-3-yl]oxy}(ethoxy)acetate] | 90 | 90 | 90 | 100 | 90 | 90 | 90 | 90 | 90 | 90 | 100 | 100 | 90 | 0 | 100 | 90 | 100 | 90 | 90 | 90 | pest or weed control at 80 g/ha (VERPE [2]): 80%; pest or weed control at 80 g/ha (MATIN [3]): 80%; pest or weed control at 80 g/ha (VIOTR): 80%; pest or weed control at 80 g/ha (PHBPU): 90%; pest or weed control at 80 g/ha (ECHCG [5]): 90%; Pre-emergence effect at 80 g/ha against MATIN in % (MATIN [7]; 80 g/ha): 90%; Pre-emergence effect at 80 g/ha against AMARE in % (AMARE [9]): 80%; pest or weed control at 80 g/ha (AMARE [10]; 80 g/ha): 80%; Pre-emergence effect at 320 g/ha against VERPE in % (VERPE [11]): 80%; Pre-emergence effect at 80 g/ha against LOLRI in % (LOLRI [12]; 80 g/ha): 90%; Pre-emergence effect at 80 g/ha against POLCO in % (POLCO): 80% |
